The values below are quoted from earlier work in patent US20120263802A1 (priority 2003, published 2012).

The test system of data set [1] is VEGF RTK.
The test system of data set [2] is range of models. The following applies: once-daily oral administration; Wedge et al, Proc. Am. Assoc. Canc. Res. 2001; 42: abstract 3126.

As to `COc1cc2c(Nc3ccc(Br)cc3F)ncnc2cc1OCC1CCN(C)CC1` [ZD6474, 4-(4-bromo-2-fluoroanilino)-6-methoxy-7-(1-methylpiperidin-4-ylmethoxy)quinazoline], the “inhibition of VEGF RTK” value in data set [1] is reported as “potent inhibitor”. Also, in data set [2], the anti-tumour activity entry is reported as “broad-spectrum anti-tumour activity”.
